Results published in a melting point compilation (Tetko et al.).

Conditions: a range is the spread between reports

| Compound | melting point [°C] |
| --- | --- |
| BrCC(Br)c1ccccc1 (centres undefined) | 72 to 75 |
| CCCCCCCCCCCCCCCCCCCCCCC | 47.6 to 49 |
| C=C(C)C | -140 |
| CCOC(=O)c1cc([N+](=O)[O-])cc([N+](=O)[O-])c1 | 92 to 94 |
| Sc1nc2ccccc2[nH]1 | 298 |
| N#CN | 44 to 45.6 |
| CC12CCC(=O)C=C1CCC1C2CCC2(C)C1CCC2(C)O (centres undefined) | 163 to 164 |
| CC(=O)OO | -0.2 to 0.1 |
| O=[N+]([O-])c1cccc(I)c1 | 37 to 38.5 |
| C1=CCCCC1 | -104 |
| O=C(O)c1ccc(C(F)(F)F)cc1 | 220 to 221 |
| O=C(O)c1ccc([N+](=O)[O-])c(O)c1 | 230 to 234 |
| C[C@H]1CC[C@@H](O)CC1 | -10 to -9.2 |
| CC(NC(=O)OC(C)(C)C)C(=O)O (centres undefined) | 79.5 to 82 |
| Oc1ccc(-c2ccccc2)cc1 | 165 to 167 |
| CCCCCCCCOc1ccc(C(=O)c2ccccc2)c(O)c1 | 48 to 48.5 |
| CC12CCC(=O)C=C1CCC1C2CCC2(C)C(C(=O)CO)CCC12 (centres undefined) | 142 |
| Nc1cc(Cl)ccc1O | 140 to 143 |
| Nc1ccc2ccc3cccc4ccc1c2c34 | 116 to 118 |
| Nc1cccc(CO)c1 | 93 to 95 |
| Cc1ccccc1C | -25.2 to -25 |
| CCCCCCCCCCCCCCCCCCCCCCO | 70 to 72.5 |
| CC(C)(C)C(O)C(Oc1ccc(Cl)cc1)n1cncn1 (centres undefined) | 134 to 138 |
| OCCCO | -27 to -26 |

| Compound | melting point [°C] |
| --- | --- |
| Clc1nc(Cl)nc(Nc2ccccc2Cl)n1 | 160 |
| CC(C)C(C)(C)O | -14 to -10 |
| Brc1ccc(Oc2ccccc2)cc1 | 18 to 18.7 |
| O=C(O)C12CC3CC(CC(C3)C1)C2 | 174 to 175 |
| c1ccc2c(c1)Sc1ccccc1S2 | 159 |
| Fc1ccccc1I | -42 to -41.5 |
| OC(c1ccccc1)c1ccccc1 | 66 to 69 |
| O=C(c1ccccc1)C(Cl)c1ccccc1 (centres undefined) | 67 to 68.5 |
| OC1c2ccccc2Oc2ccccc21 | 123 to 128 |
| O=C(O)[C@@H]1CCCN1C(=O)OCc1ccccc1 | 76 to 77 |
| C/C=C\CC | -151 |
| CF | -143 to -142 |
| CC1CO1 (centres undefined) | -112 |
| Cc1ccc2n[nH]nc2c1 | 81 |
| Cc1c[nH]cn1 | 51 to 56 |
| O=C1NC(=O)c2c1cccc2[N+](=O)[O-] | 214 to 219 |
| CCCN(CCC)CCC | -94 to -93 |
| CS(=O)(=O)c1ccc(C(O)C(CO)NC(=O)C(Cl)Cl)cc1 (centres undefined) | 165 |
| CC(=O)Nc1ccccc1[N+](=O)[O-] | 92 to 94 |
| CC(C)c1ncc([N+](=O)[O-])n1C | 60 to 61 |
| Cc1cccc(C)c1O | 45.7 to 49 |
| N#CCc1cccc(CC#N)c1 | 33 to 34 |
| C=C(C)CC(C)(C)C | -94 to -93 |
| O=C1OC(=O)c2cc(Cl)c(Cl)cc21 | 186 to 188 |

| Compound | melting point [°C] |
| --- | --- |
| OCC(O)COc1ccc(Cl)cc1 (centres undefined) | 78 to 80 |
| CC(=O)C(=O)O | 11 to 13.8 |
| Cc1cc(C)nc(C)c1 | -46 to -43 |
| CC(C)CN | -87 to -85 |
| Fc1cccc2ccccc12 | -13 to -9 |
| O=C(O)CCCc1ccccc1 | 48 to 52 |
| Nc1cccc(Cl)c1 | -10.4 to -10 |
| CC(Oc1ccccc1)C(=O)O (centres undefined) | 118 |
| O=C(CCNNC(=O)c1ccncc1)NCc1ccccc1 | 151 to 152 |
| Oc1ccc2c(c1)CCC2 | 53 to 58 |
| O=CN1CCOCC1 | 21 to 22 |
| CC(=O)c1c[nH]c2ccccc12 | 189 to 194 |
| CCCCCCCCCCCCCCCCCCCCCC(=O)O | 76 to 81 |
| CC(C=CC1=C(C)CCCC1(C)C)=CC=CC(C)=CCO | 63 to 63.5 |
| CCCC(O)CCC | -42 to -41.2 |
| Cc1cccc(C)c1 | -48 to -47 |
| CCOc1ccc2ccccc2c1 | 36 to 37.5 |
| CCCCNCCCC | -62 to -60 |
| C1CCCCCCCCCCCCCC1 | 61.3 to 62 |
| CCCc1ccc(C)cc1 | -64 to -63.6 |
| Cc1c(N)cccc1[N+](=O)[O-] | 90 to 92 |
| C[C@H](O)CN | 21.5 to 25 |
| CCOc1ccc(C(C)=O)cc1 | 37 to 39 |
| O=P(O)(c1ccccc1)c1ccccc1 | 194 to 195 |

| Compound | melting point [°C] |
| --- | --- |
| Cc1cc(N)c2ccccc2n1 | 164 to 169 |
| ClC(Cl)C(Cl)Cl | -44 to -43 |
| O=C(Cc1ccccc1)c1ccccc1 | 55 to 60 |
| CCC(=O)c1ccc(Cl)cc1 | 35 to 37.3 |
| O=C(Nc1ccccc1)c1ccccc1 | 163 to 164 |
| N#Cc1ccc(C(N)=O)cc1 | 224 to 227 |
| CC(C)(C)OC(=O)NCC(=O)O | 87.5 to 89 |
| CCCCCCC(=O)OCC | -66.1 to -66 |
| O=C(CC(=O)C(F)(F)F)c1cccs1 | 42 to 43 |
| CCCCCCCCCCCCCCCCCCCCCCCCCC | 56.4 to 57 |
| CCC(=O)O | -21.1 to -20.7 |
| NC(=O)NCc1ccccc1 | 148 to 149 |
| Cc1ccc(Cl)cc1N | 23 to 26 |
| COc1ccc2cc(OC)ccc2c1 | 150 to 153 |
| c1ccc(Nc2ccc(-c3ccc(Nc4ccccc4)cc3)cc2)cc1 | 247 to 248 |
| Cc1c(Cl)cccc1[N+](=O)[O-] | 36 to 37.8 |
| CCOc1ccc2ccccc2c1C=O | 112 to 115 |
| OCC1OC(OC2(CO)OC(CO)C(O)C2O)C(O)C(O)C1O (centres undefined) | 186 to 188 |
| C=C[Si]1(C)O[Si](C)(C=C)O[Si](C)(C=C)O[Si](C)(C=C)O1 (centres undefined) | -43.5 to -43 |
| c1ccc2ncncc2c1 | 47 to 48 |
| CCCCCCCCCCc1ccc(N)cc1 | 24 to 25 |
| O=C(O)C1CSCN1 (centres undefined) | 195 to 196 |
| C=CCCCCCCCC | -66.3 to -66 |
| O=[N+]([O-])c1cccc(CO)c1 | 30.5 to 32 |

| Compound | melting point [°C] |
| --- | --- |
| NC(=O)CI | 93.5 to 94.5 |
| Nc1cccc2cccnc12 | 65 to 70 |
| Cc1cccc(-c2ccccc2)c1 | 4.5 to 5 |
| Cc1cc(Cl)ccc1O | 47 to 51 |
| OCc1ccc(Br)cc1 | 76 to 78 |
| CC(CCC(=O)O)C1CCC2C3C(O)CC4CC(O)CCC4(C)C3CC(O)C12C (centres undefined) | 198 to 201 |
| CC1(C)C(=O)N(Cl)C(=O)N1Cl | 132 to 135 |
| CCCCCCCCCCCC(=O)OC | 5 to 5.2 |
| CCCCCC(=O)O | -4 to -1.9 |
| Cc1ccnc2ccccc12 | 9.5 to 10 |
| NCCC(=O)O | 196 to 200 |
| Nc1c(Br)cc(Br)cc1Br | 120 to 122 |
| Cc1cc(C)c(S(=O)(=O)Cl)c(C)c1 | 55 to 56 |
| CC(=O)OCCc1ccccc1 | -31.1 to -31 |
| Nc1ccc([N+](=O)[O-])cc1C(=O)c1ccccc1 | 163 to 167 |
| CCc1ccccc1 | -95 to -94.9 |
| CCCCCCCCC(=O)CC | 9 to 13 |
| O=[N+]([O-])c1ccccc1CO | 72 to 74 |
| COC(=O)c1c(Cl)c(Cl)c(C(=O)OC)c(Cl)c1Cl | 155 to 157 |
| O=C(OCc1ccccc1)c1ccccc1 | 18 to 21 |
| N#CCc1ccccc1[N+](=O)[O-] | 82 to 84 |
| CCC(C)(C)C(=O)OC1CC(C)C=C2C=CC(C)C(CCC3CC(O)CC(=O)O3)C21 (centres undefined) | 136 |
| COc1ccc(C(C)=O)c(O)c1 | 49 to 52.5 |
| O=C(c1ccccc1)c1cccc(C(F)(F)F)c1 | 52 to 52.5 |

| Compound | melting point [°C] |
| --- | --- |
| Oc1ccc(NCc2ccccc2)cc1 | 84 to 88 |
| NC(CC(=O)O)C(=O)O (centres undefined) | 270 to 275 |
| NNC(=O)c1cccc(Br)c1 | 156 to 158 |
| CCCCCCCCCCCCCCCCCCCCO | 64 to 66.1 |
| O=C(O)c1cc(-c2ccccc2)nc2ccccc12 | 214 to 215 |
| CCCCCCCCCCCCCC=O | 20.5 to 24 |
| OCCCCO | 16 to 20.4 |
| N#Cc1ccc(I)cc1 | 125 to 126 |
| C1=Cc2ccccc2C1 | -2 to -1.8 |
| NC(=S)c1c(Cl)cccc1Cl | 151 to 152 |
| N#Cc1c(F)c(F)c(F)c(F)c1F | 2 to 2.4 |
| Nc1c(Cl)cc(Cl)cc1Cl | 74 to 78.5 |
| Cc1ccc(C(N)=O)cc1 | 159 to 163 |
| C=C(CC)CC | -132 |
| CCCCOC(=O)CCCCCCCCC(=O)OCCCC | -11 to -10 |
| Cc1ccccc1-c1ccccc1C | 18 to 19.5 |
| OCCN(CCO)CCO | 19.5 to 20.5 |
| CCCCCCCCCCCCCC(N)=O | 104 to 106 |
| N#Cc1ccccc1Cl | 45 to 46.3 |
| N#CCc1ccc(O)cc1 | 69 to 71 |
| CCCCCCOCCO | -45.1 to -42 |
| NCCO | 10 to 11 |
| O=[N+]([O-])c1cccc2c([N+](=O)[O-])cccc12 | 216 to 219 |
| CC(C)COC(=O)C(C)C | -81 to -80 |

| Compound | melting point [°C] |
| --- | --- |
| CC(=O)N[C@@H](CS)C(=O)O | 110 |
| C=CCC1(C(C)C)C(=O)NC(=O)NC1=O | 141 to 143 |
| CCCCCCC(=O)Cl | -84 to -83.8 |
| c1ccc(OCC2CO2)cc1 (centres undefined) | 3.5 to 4 |
| O=C(O)c1cccc(Oc2ccccc2)c1 | 148 to 150 |
| c1ccc2c(c1)Oc1ccccc1O2 | 122 |
| NC(=O)c1ccc(Br)cc1 | 191 to 192 |
| OCCCCCCCCCCO | 72 to 74 |
| COc1cc(OC)c(C(=O)O)cc1OC | 144 to 145 |
| CCOC(=O)Cc1c[nH]c2ccccc12 | 43 to 44.5 |
| CNc1ccc(Cl)cc1C(=O)c1ccccc1 | 94 to 96 |
| O=C(O)c1cc([N+](=O)[O-])ccc1Cl | 166 to 167 |
| O=C(O)c1ccc([N+](=O)[O-])cc1C(=O)O | 162 to 163 |
| CC12CCC(C(=O)C1=O)C2(C)C (centres undefined) | 199 to 200 |
| O=C(O)CCc1c[nH]c2ccccc12 | 134 |
| CCCCCCCCCC#N | -17.9 to -15 |
| CCN(CC)CC | -115 |
| O=[N+]([O-])c1cccc2cccc([N+](=O)[O-])c12 | 172 to 173 |
| COc1ccc(C(=O)O)cc1OC | 180 to 181 |
| O=C(O)c1cc(I)cc(I)c1O | 231 to 236 |
